Test [1] concerns the target T1, WT-LRRK2 (recombinant GST-LRRK2 delta970) (Homo sapiens, UniProt Q5S007).
T1 construct: Recombinant GST-LRRK2 (delta970); GST (N); host or cells: baculovirus-infected Sf9 insect cells
Kind of test: LRRK2 kinase assay, wild type (32P radiometric, peptide substrate). As to conditions: WT-LRRK2 30 nM, ATP ~92 μM (Km), 30 min at 30° C. The format is biochemical. The procedure:
(§1) Compounds were assessed for inhibition of LRRK2 inhibition using the following procedure. Recombinant GST-LRRK2 (delta970) purified from baculovirus infected insect cells (SF9), at least 90% pure and either wild-type sequence or bearing the pathogenic G2019S mutation, was combined into a kinase buffer at 30 nM concentration. Kinase buffer consists of 50 mM Tris HCl pH 7.4, 1 mM EDTA, and 50 μM peptide substrate (amino acid sequence […]). Experimental compounds or control (no compound) were added at desired concentrations in DMSO and water, where final concentration of DMSO in kinase reactions was 0.1% for all drug concentrations. […] Reactions were incubated at 1400 RPM at 30° C. for 30 min. and then spotted in triplicate directly onto a slot-blot apparatus fitted with phospho-cellulose paper and allowed to dry. Each slot was then washed with 10 mM phosphoric acid buffer until beta-radiation could not be detected in eluted wash buffer, usually ˜1 mL per slot. Paper within each slot were excised and radiation measured by liquid scintillation.

Test [2] addresses T2, G2019S-LRRK2 (recombinant GST-LRRK2 delta970) (Homo sapiens, UniProt Q5S007, G2019S).
T2 construct: Recombinant GST-LRRK2 (delta970); GST (N); host or cells: baculovirus-infected Sf9 insect cells
Kind of test: LRRK2 kinase assay, G2019S mutant (32P radiometric, peptide substrate). The format is biochemical. As to conditions: G2019S-LRRK2 30 nM, ATP ~52 μM (Km), 30 min at 30° C. As to the method: as §1

T2 sequence (Q5S007 970-2527 G2019S limits assumed): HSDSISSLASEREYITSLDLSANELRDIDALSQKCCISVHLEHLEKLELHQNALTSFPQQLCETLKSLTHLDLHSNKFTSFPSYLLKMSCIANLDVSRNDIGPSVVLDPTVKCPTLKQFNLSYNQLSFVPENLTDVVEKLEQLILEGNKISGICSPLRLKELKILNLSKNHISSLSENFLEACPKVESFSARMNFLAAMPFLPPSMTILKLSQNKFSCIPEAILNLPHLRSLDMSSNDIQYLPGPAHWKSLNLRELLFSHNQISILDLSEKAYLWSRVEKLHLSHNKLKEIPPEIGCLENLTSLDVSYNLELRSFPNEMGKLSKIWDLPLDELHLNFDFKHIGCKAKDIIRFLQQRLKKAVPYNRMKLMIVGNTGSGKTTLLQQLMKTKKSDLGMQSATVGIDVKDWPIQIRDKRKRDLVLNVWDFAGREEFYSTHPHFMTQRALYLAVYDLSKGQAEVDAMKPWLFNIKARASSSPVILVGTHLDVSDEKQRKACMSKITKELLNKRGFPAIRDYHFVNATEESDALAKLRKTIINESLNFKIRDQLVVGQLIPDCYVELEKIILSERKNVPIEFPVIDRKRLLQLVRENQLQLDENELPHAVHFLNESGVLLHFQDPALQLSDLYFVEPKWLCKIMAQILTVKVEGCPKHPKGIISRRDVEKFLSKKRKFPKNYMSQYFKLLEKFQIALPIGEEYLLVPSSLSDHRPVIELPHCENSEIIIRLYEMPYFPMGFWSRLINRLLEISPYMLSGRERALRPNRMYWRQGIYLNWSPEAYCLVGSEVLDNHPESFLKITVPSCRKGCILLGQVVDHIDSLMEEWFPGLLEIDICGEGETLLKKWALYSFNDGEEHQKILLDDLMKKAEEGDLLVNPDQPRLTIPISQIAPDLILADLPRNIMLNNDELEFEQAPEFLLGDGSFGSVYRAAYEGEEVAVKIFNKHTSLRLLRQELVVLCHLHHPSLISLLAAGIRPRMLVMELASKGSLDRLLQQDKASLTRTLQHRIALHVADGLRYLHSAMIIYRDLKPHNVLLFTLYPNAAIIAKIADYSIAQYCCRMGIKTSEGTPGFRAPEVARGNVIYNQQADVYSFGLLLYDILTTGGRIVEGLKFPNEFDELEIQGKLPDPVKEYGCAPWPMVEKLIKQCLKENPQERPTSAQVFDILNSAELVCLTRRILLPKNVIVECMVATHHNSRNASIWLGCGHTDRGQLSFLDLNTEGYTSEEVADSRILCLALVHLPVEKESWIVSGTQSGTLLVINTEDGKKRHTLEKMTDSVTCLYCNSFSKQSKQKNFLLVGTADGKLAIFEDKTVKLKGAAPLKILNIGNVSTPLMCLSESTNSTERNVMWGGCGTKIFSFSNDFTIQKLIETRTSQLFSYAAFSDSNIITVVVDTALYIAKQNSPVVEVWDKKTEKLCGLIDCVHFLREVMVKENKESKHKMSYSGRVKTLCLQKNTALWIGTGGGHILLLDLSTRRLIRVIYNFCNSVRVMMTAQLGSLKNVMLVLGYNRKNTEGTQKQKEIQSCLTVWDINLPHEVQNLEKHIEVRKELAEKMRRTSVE
T1 sequence (Q5S007 970-2527 limits assumed): as the sequence (Q5S007 970-2527 G2019S limits assumed) above, with S1050G counted along it

Turning to `C[C@H](Nc1nc(Nc2cn([C@@H](C)CO)nn2)nc2[nH]ccc12)C1CC1` [Compound 58, (S)-2-(4-((4-(((S)-1-cyclopropylethyl)amino)-7H-pyrrolo[2,3-d]pyrimidin-2-yl)amino)-1H-1,2,3-triazol-1-yl)propan-1-ol], the IC50 in test [1] is 0.072 µM; in test [2], 0.101 µM.

As for `CC(C)n1ccc(Nc2nc(N[C@@H](C)C3CC3)c3nc[nH]c3n2)n1` [Compound 59, (S)-N6-(1-cyclopropylethyl)-N2-(1-isopropyl-1H-pyrazol-3-yl)-9H-purine-2,6-diamine], the values for the IC50 in test [1] and in test [2] were 0.051 µM and 0.115 µM, respectively.

Consider `Cc1cc(Nc2nc(N[C@@H](C)C3CC3)c3nc[nH]c3n2)nn1C(C)C` [Compound 60, (S)-N6-(1-cyclopropylethyl)-N2-(1-isopropyl-5-methyl-1H-pyrazol-3-yl)-9H-purine-2,6-diamine], for which the IC50 in test [1] amounted to 0.032 µM; in test [2], 0.065 µM.

With `COCc1cc(Nc2nc(N[C@@H](C)C3CC3)c3cc[nH]c3n2)n[nH]1` [Compound 61, (S)-N4-(1-cyclopropylethyl)-N2-(5-(methoxymethyl)-1H-pyrazol-3-yl)-7H-pyrrolo[2,3-d]pyrimidine-2,4-diamine], the values for the IC50 in test [1] and in test [2] were 0.064 µM and 0.099 µM, respectively.

As a reminder, the IC50 is the concentration that inhibits the measured activity by half.

The record behind these values is US10023579B2, “Pyrrolopyrimidine compounds, use as inhibitors of the kinase LRRK2, and methods for preparation thereof” (Southern Research Institute, priority 2015, dated 2018).
